In ChEMBL document CHEMBL3046832, “Synthesis of some sulfonamides, disubstituted sulfonylureas or thioureas and some structurally related variants. A class of promising antitumor agents” (2007):

Tests used:
Format in all cases: functional
K562 = test: Cytotoxicity against Homo sapiens (human) K562 cells after 48 hr by SRB assay; settings: K562, 48 h
OVCAR-8 = test: Cytotoxicity against Homo sapiens (human) OVCAR8 cells after 48 hr by SRB assay; settings: OVCAR-8, 48 h
SK-MEL-2 = test: Cytotoxicity against Homo sapiens (human) SK-MEL-2 cells after 48 hr by SRB assay; settings: SK-MEL-2, 48 h
ACHN = test: Cytotoxicity against Homo sapiens (human) ACHN cells after 48 hr by SRB assay
SK-MEL-28 = test: Cytotoxicity against Homo sapiens (human) SK-MEL-28 cells after 48 hr by SRB assay; settings: SK-MEL-28, 48 h
HT-29 = test: Cytotoxicity against Homo sapiens (human) HT-29 cells after 48 hr by SRB assay; settings: HT-29, 48 h
NCI-H460 = test: Cytotoxicity against Homo sapiens (human) NCI-H460 cells after 48 hr by SRB assay; settings: NCI-H460, 48 h
TK-10 = test: Cytotoxicity against Homo sapiens (human) TK10 cells after 48 hr by SRB assay; settings: TK-10, 48 h
HCC 2998 = test: Cytotoxicity against Homo sapiens (human) HCC2998 cells after 48 hr by SRB assay; settings: HCC 2998, 48 h
HCT-116 = test: Cytotoxicity against Homo sapiens (human) HCT116 cells after 48 hr by SRB assay; settings: HCT-116, 48 h
UACC-257 = test: Cytotoxicity against Homo sapiens (human) UACC257 cells after 48 hr by SRB assay; settings: UACC-257, 48 h
SF-539 = test: Cytotoxicity against Homo sapiens (human) SF539 cells after 48 hr by SRB assay; settings: SF-539, 48 h
[1] = Cytotoxicity against Homo sapiens (human) non-small cell lung cancer cells after 48 hr by SRB assay; settings: Cancer cell lines
SF-268 = test: Cytotoxicity against Homo sapiens (human) SF268 cells after 48 hr by SRB assay; settings: SF-268, 48 h
NCI-H226 = test: Cytotoxicity against Homo sapiens (human) NCI-H226 cells after 48 hr by SRB assay; settings: NCI-H226, 48 h
LOX IMVI = test: Cytotoxicity against Homo sapiens (human) LOXIMVI cells after 48 hr by SRB assay
CCRF-CEM = test: Cytotoxicity against Homo sapiens (human) CCRF-CEM cells after 48 hr by SRB assay
SNB-75 = test: Cytotoxicity against Homo sapiens (human) SNB75 cells after 48 hr by SRB assay; settings: SNB-75, 48 h
DU-145 = test: Cytotoxicity against Homo sapiens (human) DU145 cells after 48 hr by SRB assay; settings: DU-145, 48 h
[2] = Cytotoxicity against Homo sapiens (human) prostate cancer cells after 48 hr by SRB assay; settings: Cancer cell lines

## NS(=O)(=O)c1ccc(-n2nc3c(c2-c2cccs2)Cc2ccccc2-3)cc1
K562
  GI50: 0.86 µM
OVCAR-8
  GI50: 20.5 µM
SK-MEL-2
  GI50: 27.6 µM
ACHN
  GI50: 11.7 µM
SK-MEL-28
  GI50: 25.8 µM
HT-29
  GI50: 22.9 µM
NCI-H460
  GI50: > 100 µM
TK-10
  GI50: 12.2 µM
HCC 2998
  GI50: 12.8 µM
HCT-116
  GI50: 7.67 µM
UACC-257
  GI50: 23.2 µM
SF-539
  GI50: 21.1 µM
[1]
  GI50: 21.7 µM
  TGI: 31.3 µM
SF-268
  GI50: > 100 µM
NCI-H226
  GI50: 4.9 µM
LOX IMVI
  GI50: 6.58 µM
CCRF-CEM
  GI50: 4.24 µM
SNB-75
  GI50: 25.5 µM
DU-145
  GI50: 24.1 µM
[2]
  GI50: 22.3 µM
  TGI: 22.3 µM

## NS(=O)(=O)c1ccc(N2N=C3c4ccccc4CC3C2c2cccs2)cc1 (stereo unspecified)
K562
  GI50: 57.5 µM
OVCAR-8
  GI50: 15.3 µM
SK-MEL-2
  GI50: > 100 µM
ACHN
  GI50: 19.8 µM
SK-MEL-28
  GI50: 75.6 µM
HT-29
  GI50: 26.1 µM
NCI-H460
  GI50: > 100 µM
TK-10
  GI50: 13.2 µM
HCC 2998
  GI50: 14.8 µM
HCT-116
  GI50: 10.7 µM
UACC-257
  GI50: 29.7 µM
SF-539
  GI50: 17.4 µM
[1]
  GI50: 29.6 µM
  TGI: 45.5 µM
SF-268
  GI50: > 100 µM
LOX IMVI
  GI50: 19.1 µM
CCRF-CEM
  GI50: 31.8 µM
SNB-75
  GI50: 31.1 µM
DU-145
  GI50: 14.5 µM
[2]
  GI50: 18.3 µM
  TGI: 48.6 µM

## O=C(Nc1ccccc1)NS(=O)(=O)c1ccc(N2N=C3c4ccccc4CC3C2c2cccnc2)cc1 (stereo unspecified)
K562
  GI50: 26.6 µM
OVCAR-8
  GI50: 27 µM
SK-MEL-2
  GI50: 35.6 µM
ACHN
  GI50: 23.6 µM
SK-MEL-28
  GI50: 71.5 µM
HT-29
  GI50: 37.9 µM
NCI-H460
  GI50: 38.5 µM
TK-10
  GI50: 11.7 µM
HCC 2998
  GI50: 17.3 µM
HCT-116
  GI50: 15.3 µM
UACC-257
  GI50: 26.6 µM
SF-539
  GI50: 30.6 µM
[1]
  GI50: 30 µM
  TGI: 56.4 µM
SF-268
  GI50: 62.1 µM
NCI-H226
  GI50: 23.7 µM
LOX IMVI
  GI50: 15.4 µM
CCRF-CEM
  GI50: 40.9 µM
SNB-75
  GI50: > 100 µM
DU-145
  GI50: 36.6 µM
[2]
  GI50: 36.4 µM
  TGI: 52.1 µM

## O=C(NC1CCCCC1)NS(=O)(=O)c1ccc(-n2nc3c(c2-c2cccs2)Cc2ccccc2-3)cc1
K562
  GI50: 10 µM
OVCAR-8
  GI50: 25.3 µM
SK-MEL-2
  GI50: 23.6 µM
ACHN
  GI50: 17.3 µM
SK-MEL-28
  GI50: 34.2 µM
HT-29
  GI50: 34.3 µM
NCI-H460
  GI50: 93 µM
TK-10
  GI50: 17.5 µM
HCC 2998
  GI50: 6.63 µM
HCT-116
  GI50: 31.6 µM
UACC-257
  GI50: 24.8 µM
SF-539
  GI50: 27.6 µM
[1]
  GI50: 38.7 µM
  TGI: 46.7 µM
SF-268
  GI50: > 100 µM
NCI-H226
  GI50: 21.3 µM
LOX IMVI
  GI50: 5.66 µM
CCRF-CEM
  GI50: 1.15 µM
SNB-75
  GI50: 52.2 µM
DU-145
  GI50: 31.9 µM
[2]
  GI50: 23.2 µM
  TGI: 34.7 µM

## O=C(Nc1ccccc1)NS(=O)(=O)c1ccc(-n2nc3c(c2-c2cccs2)Cc2ccccc2-3)cc1
K562
  GI50: 14 µM
OVCAR-8
  GI50: 28.3 µM
SK-MEL-2
  GI50: 70.1 µM
ACHN
  GI50: 17.6 µM
SK-MEL-28
  GI50: 50.2 µM
HT-29
  GI50: 26.7 µM
NCI-H460
  GI50: 18.9 µM
TK-10
  GI50: 4.99 µM
HCC 2998
  GI50: 15.3 µM
HCT-116
  GI50: 9.13 µM
UACC-257
  GI50: 17.7 µM
SF-539
  GI50: 25 µM
[1]
  GI50: 18.2 µM
  TGI: 74.4 µM
SF-268
  GI50: 26 µM
NCI-H226
  GI50: 19.2 µM
LOX IMVI
  GI50: 12 µM
CCRF-CEM
  GI50: 13.6 µM
SNB-75
  GI50: 70.4 µM
DU-145
  GI50: 28.6 µM
[2]
  GI50: 19.5 µM
  TGI: 98.1 µM

## O=S(=O)(NC(=S)Nc1ccccc1)c1ccc(N2N=C3c4ccccc4CC3C2c2cccs2)cc1 (stereo unspecified)
K562
  GI50: 31.3 µM
OVCAR-8
  GI50: 39 µM
SK-MEL-2
  GI50: 55.9 µM
ACHN
  GI50: 26.4 µM
SK-MEL-28
  GI50: 53.8 µM
HT-29
  GI50: 36.2 µM
NCI-H460
  GI50: 24.6 µM
TK-10
  GI50: 12.2 µM
HCC 2998
  GI50: 13.9 µM
HCT-116
  GI50: 15.1 µM
UACC-257
  GI50: 29.1 µM
SF-539
  GI50: 22.7 µM
[1]
  GI50: 30.5 µM
  TGI: 48.4 µM
SF-268
  GI50: 30.7 µM
NCI-H226
  GI50: 27.2 µM
LOX IMVI
  GI50: 24.4 µM
CCRF-CEM
  GI50: 30.5 µM
SNB-75
  GI50: 71.9 µM
DU-145
  GI50: 17.8 µM
[2]
  GI50: 20.3 µM
  TGI: 47.9 µM
